Data reported in publication PMC5622936, “Novel Carbonyl Analogs of Tamoxifen: Design, Synthesis, and Biological Evaluation” (Frontiers in Chemistry, 2017).

Tests used:
ERα = molecular target: T1, ERα (Homo sapiens, UniProt P03372); assay: fluorescence polarization competition, displacement of fluorescent estrogen ES2 (Beacon […]); type: binding; conditions: 1 nM ES2 tracer, relative to estradiol = 100
T1 construct: gene ESR1; isolated recombinant human ERα (Invitrogen)
T1 sequence (P03372 1-595): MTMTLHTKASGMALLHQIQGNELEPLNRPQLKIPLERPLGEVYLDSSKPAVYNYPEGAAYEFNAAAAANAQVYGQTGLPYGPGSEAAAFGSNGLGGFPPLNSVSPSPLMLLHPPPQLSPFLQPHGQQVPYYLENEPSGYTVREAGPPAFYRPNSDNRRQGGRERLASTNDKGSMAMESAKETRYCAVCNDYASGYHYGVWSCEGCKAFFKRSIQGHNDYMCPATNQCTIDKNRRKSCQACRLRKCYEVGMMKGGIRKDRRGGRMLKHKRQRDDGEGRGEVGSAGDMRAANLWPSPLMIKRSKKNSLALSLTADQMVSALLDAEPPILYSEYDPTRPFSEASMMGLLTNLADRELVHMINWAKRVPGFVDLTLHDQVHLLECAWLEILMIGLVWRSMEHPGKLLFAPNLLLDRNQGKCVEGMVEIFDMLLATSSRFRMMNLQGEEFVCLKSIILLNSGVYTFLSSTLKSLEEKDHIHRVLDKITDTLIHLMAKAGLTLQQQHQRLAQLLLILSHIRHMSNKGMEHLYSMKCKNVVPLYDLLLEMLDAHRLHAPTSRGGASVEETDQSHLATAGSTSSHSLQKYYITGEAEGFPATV

ERβ = molecular target: T2, ERβ (Homo sapiens, UniProt Q92731); assay: as above; type: binding; conditions: 1 nM ES2 tracer, relative to estradiol = 100
T2 construct: gene ESR2; isolated recombinant human ERβ (Invitrogen)
T2 sequence (Q92731 whole entry): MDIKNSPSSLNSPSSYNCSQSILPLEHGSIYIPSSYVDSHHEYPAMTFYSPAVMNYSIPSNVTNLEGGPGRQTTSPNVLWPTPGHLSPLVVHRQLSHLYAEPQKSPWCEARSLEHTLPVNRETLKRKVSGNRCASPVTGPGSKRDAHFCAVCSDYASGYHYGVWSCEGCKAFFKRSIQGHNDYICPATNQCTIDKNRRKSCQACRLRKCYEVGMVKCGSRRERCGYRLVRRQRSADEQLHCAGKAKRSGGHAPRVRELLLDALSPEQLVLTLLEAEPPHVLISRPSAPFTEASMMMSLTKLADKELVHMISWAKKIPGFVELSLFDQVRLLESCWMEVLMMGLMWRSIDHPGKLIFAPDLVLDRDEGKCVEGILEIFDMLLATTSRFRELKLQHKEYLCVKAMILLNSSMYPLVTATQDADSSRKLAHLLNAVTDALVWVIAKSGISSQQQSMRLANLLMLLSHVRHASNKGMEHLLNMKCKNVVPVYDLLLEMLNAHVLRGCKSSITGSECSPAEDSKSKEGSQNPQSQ

Row | SMILES | RBAα^a (ERα) | RBAβ^a (ERβ) | RBAα^a (ERα; E/Z isomer tested not stated) | RBAβ^a (ERβ; E/Z isomer tested not stated)
1 | CC/C(=C(\c1ccc(O)cc1)c1ccc(C(=O)NCCBr)cc1)c1ccc(O)cc1 [compound 13, (E)-4-[1,2-bis-(4-hydroxy-phenyl)-but-1-enyl]-n-(2-bromo-ethyl)-benzamide] | 17.4 ± 3.0 | 8.40 ± 2.5 |  | 
2 | CC/C(=C(\c1ccc(O)cc1)c1ccc(C(=O)NCCCBr)cc1)c1ccc(O)cc1 [compound 14, (E)-4-[1,2-bis-(4-hydroxy-phenyl)-but-1-enyl]-n-(3-bromo-propyl)-benzamide] | 7.94 ± 0.6 | 6.15 ± 0.6 |  | 
3 | CC/C(=C(\c1ccc(O)cc1)c1ccc(OC(=O)CN2CCOCC2)cc1)c1ccc(O)cc1 [8c, Z-Morpholin-4-yl-acetic acid 4-[1,2-bis-(4-hydroxy-phenyl)-but-1-enyl]-phenyl ester] | 8.06 ± 0.9 | 16.79 ± 1.4 |  | 
4 | CC/C(=C(\c1ccc(O)cc1)c1ccc(OC(=O)CN(C)C)cc1)c1ccc(O)cc1 [8a, Z-Dimethylamino-acetic acid 4-[1,2-bis-(4-hydroxy-phenyl)-but-1-enyl]-phenyl ester] | 101.35 ± 10.2 | 72.72 ± 2.1 |  | 
5 | CCC(=C(c1ccc(O)cc1)c1ccc(C(=O)O)cc1)c1ccc(O)cc1 (mixture of isomers) [compound 10, 4-[1,2-bis-(4-hydroxy-phenyl)-but-1-enyl]-benzoic acid] |  |  | 12.2 ± 2.3 | 16.3 ± 3.9
6 | CC/C(=C(\c1ccc(O)cc1)c1ccc(OC(=O)CBr)cc1)c1ccc(O)cc1 [6b, Z-Bromo-acetic acid 4-[1,2 bis-(4-hydroxy-phenyl)-but-1-enyl]-phenyl ester] | 96.37 ± 7.2 | 82.39 ± 4.9 |  | 
7 | CC/C(=C(\c1ccc(O)cc1)c1ccc(OC(=O)CCl)cc1)c1ccc(O)cc1 [6a, Z-Chloro-acetic acid 4-[1,2 bis-(4-hydroxy-phenyl)-but-1-enyl]-phenyl ester] | 120.08 ± 8.5 | 62.14 ± 4.3 |  | 
8 | CC/C(=C(\c1ccc(O)cc1)c1ccc(OC(=O)CN(CC)CC)cc1)c1ccc(O)cc1 [8b, Z-Diethylamino-acetic acid 4-[1,2-bis-(4-hydroxy-phenyl)-but-1-enyl]-phenyl ester] | 108.12 ± 11.9 | 77.37 ± 4.5 |  | 
